The record followed here is patent US10550073B2, “Benzamide derivative” (CSPC ZHONGQI PHARMACEUTICAL TECHNOLOGY (SHIJIAZHUANG) CO., …, priority 2015, dated 2020).

One series deals with TNF-α. Nature of the series: In vitro cell experiment: LPS-stimulated TNF-α release in THP-1 cells (ELISA). The conditions noted are these: Homo sapiens; TNF-α in supernatant of THP-1 cells, compound 2 h then LPS 10 μg/ml 2 h. The class given is cell-based. The source says:
I. In Vitro Cell Experiment
Cells: human monocytic leukemia THP-1 cells (obtained from the Shanghai Cell Bank of Chinese Academy of Sciences).
Lipopolysaccharides: from Escherichia coli O55: B5, L2880 (Sigma).
Kit: Human TNF-α Elisa MAX Deluxe Set, 430206 (Biolegend)

A short description of series [1]: Pharmacokinetics experiment, oral administration to SD rats. The class given is in vivo. Conditions: Sprague-Dawley (SD), rat, plasma. The procedure: IV. Pharmacokinetics Experiment
Experimental Method: SD rats were orally administrated the compounds and the blood samples were taken from the eye orbit of the rat sat different time intervals after administration (0.25, 0.5, 1, 2, 4, 6, 8, 24, 48 h). The collected whole blood was anticoagulant by EDTA (Ethylene Diamine Tetraacetic Acid Sodium) and 3000 g of samples were centrifugated to obtain the rats' plasma samples, methanol or ethanol was used to precipitate proteins, the drug concentration of the rats' plasma samples was determined, the drug concentration-time curve was plotted to calculate the pharmacokinetic parameters. The pharmacokinetic behavior in rats after administration was described by non-compartmental models statistical moment parameter.
The pharmacokinetic experiments were carried out for the compounds.

Another series concerns the target p38a (Homo sapiens (Human), UniProt Q16539). Nature of the series: Assay of p38 kinase activity (fluorescence, peptide substrate). Conditions: 40 nM p38a, 100 μM ATP, 90 minutes. The class given is biochemical. Here is the method: II. Assay of p38 Kinase Activity
Experimental Method: 40 nM p38a was added into a reaction buffer, which include 20 mM HEPES (4-hydroxyethylpiperazine ethanesulfonic acid), 5 mM MgCl2 and 1 mM DTT (dithiothreitol) at pH 7.4. 40 μM phosphorylated peptide substrate was added, followed by different concentrations of drugs and 100 μM ATP (adenosine triphosphate), and reacted for 90 minutes in dark. […] The IC50 values of the compounds were obtained according to the fluorescence values.

Another series deals with CYP450, 2C9 enzymes (Homo sapiens (Human), UniProt P11712). The series can be described thus: CYP450 enzyme inhibition test in human liver microsome. The class given is in vitro ADME. The conditions noted are these: CYP450 2C9, LC-MS/MS. In general terms: Liver microsomes are a subcellular fraction often used to study metabolism.
Chain of CYP450, 2C9 enzymes (P11712 whole entry): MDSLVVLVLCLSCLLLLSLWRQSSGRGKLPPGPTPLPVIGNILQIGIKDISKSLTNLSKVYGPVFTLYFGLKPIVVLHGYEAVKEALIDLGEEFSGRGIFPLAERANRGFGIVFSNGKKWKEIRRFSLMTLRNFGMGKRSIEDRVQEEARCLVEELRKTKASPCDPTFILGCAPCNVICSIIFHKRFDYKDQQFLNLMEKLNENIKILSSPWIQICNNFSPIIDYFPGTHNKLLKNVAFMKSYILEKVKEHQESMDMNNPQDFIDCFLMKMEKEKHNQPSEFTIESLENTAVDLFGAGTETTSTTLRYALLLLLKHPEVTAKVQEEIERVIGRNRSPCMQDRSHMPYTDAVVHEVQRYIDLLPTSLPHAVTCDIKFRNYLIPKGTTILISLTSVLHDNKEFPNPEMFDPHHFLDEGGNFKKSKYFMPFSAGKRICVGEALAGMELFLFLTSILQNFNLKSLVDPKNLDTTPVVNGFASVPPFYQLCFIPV

Chain of p38a (Q16539 whole entry): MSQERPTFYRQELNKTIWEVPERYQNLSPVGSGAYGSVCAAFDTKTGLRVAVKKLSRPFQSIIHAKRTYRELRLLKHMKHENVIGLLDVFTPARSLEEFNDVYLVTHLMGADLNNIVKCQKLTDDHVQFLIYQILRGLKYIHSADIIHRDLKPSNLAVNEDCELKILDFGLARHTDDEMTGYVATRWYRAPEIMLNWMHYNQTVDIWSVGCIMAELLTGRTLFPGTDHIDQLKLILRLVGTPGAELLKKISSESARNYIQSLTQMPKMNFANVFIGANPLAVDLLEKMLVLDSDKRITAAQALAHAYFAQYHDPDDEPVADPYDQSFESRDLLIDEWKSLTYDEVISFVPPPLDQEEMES

Consider `Cc1c(F)cc(C(=O)NC2CC2)cc1-c1ccc(C(=O)NCC(C)(C)C)cn1` [Comparative example, 6-(5-(cyclopropylcarbamoyl)-3-fluoro-2-methylphenyl)-N-neopentylnicotinamide, reference compound], for which the IC50 – broadly, the concentration at which inhibition is half-maximal – with TNF-α is 10 to 20 nM. Besides, the AUC(0-t) – broadly, exposure summed from dosing to a finite time, without extrapolation to infinity – in series [1] stood at 9630 ng·h/mL.
For `Cc1cc(-c2cc(C(=O)NC3CC3)cc(F)c2C)ccc1C(=O)NCC(C)C` [Example 44, N^3-cyclopropyl-5-fluoro-N^4′-isobutyl-3′,6-dimethyl-[1,1′-biphenyl]-3,4′-dicarboxamide], the concentration for half-maximal inhibition (IC50) was < 5 nM in the series with TNF-α; 5 to 10 nM at p38a; > 50000 nM on CYP450, 2C9 enzymes.
With `Cc1c(F)cc(C(=O)NC2CC2)cc1-c1ccc(C(=O)NCC(C)C)nn1` [Example 57, 6-(5-(cyclopropylcarbamoyl)-3-fluoro-2-methylphenyl)-N-isobutylpyridazin-3-carboxamide], the concentration for half-maximal inhibition (IC50) with TNF-α is < 5 nM; at p38a, < 5 nM; on CYP450, 2C9 enzymes, > 50000 nM. In series [1], this molecule returned an AUC(0-t) of 22100 ng·h/mL.
For the molecule `CCC(C)NC(=O)c1ccc(-c2cc(C(=O)NC3CC3)cc(F)c2C)nn1` (centres unmarked) [Example 58, 6-(5-(cyclopropylcarbamoyl)-3-fluoro-2-methylphenyl)-N-(sec-butyl)pyridazin-3-carboxamide], the IC50 was < 5 nM with TNF-α; < 5 nM against p38a; > 50000 nM at CYP450, 2C9 enzymes.
For the molecule `Cc1c(F)cc(C(=O)NC2CC2)cc1-c1ccc(C(=O)NCC(C)(C)C)nn1` [Example 59, 6-(5-(cyclopropylcarbamoyl)-3-fluoro-2-methylphenyl)-N-neopentylpyridazin-3-carboxamide], the 50% inhibitory concentration (IC50) is < 5 nM in the series with TNF-α; < 5 nM against p38a; > 50000 nM against CYP450, 2C9 enzymes. In series [1], this molecule came in with an exposure AUC(0-t) of 11300 ng·h/mL.
For `Cc1c(F)cc(C(=O)NC2CC2)cc1-c1ccc(C(=O)NCC2CC2)nn1` [Example 61, 6-(5-(cyclopropylcarbamoyl)-3-fluoro-2-methylphenyl)-N-(cyclopropylmethyl) pyridazin-3-carboxamide], the IC50 in the series with TNF-α is < 5 nM; on p38a it was < 5 nM; on CYP450, 2C9 enzymes, > 50000 nM. In series [1], the AUC(0-t) was found to be 12200 ng·h/mL.
